From patent publication US20200030259A1, “Antiestrogens and/or Aromatase Inhibitors for Use in Treating Obesity and Related Symptoms” (Repros Therapeutics Inc., priority 2016, published 2020) come the findings set out here.

SMILES strings stand for the structures.

Assay [1] has as its system obese men with acquired hypogonadotropic hypogonadism. In words: Phase 2 clinical trial: morning testosterone. Type of assay: in vivo, human. Particulars: p<0.0001, FIG. 1B.
Description: 50 adult male subjects are enrolled in the study with an average age of 43.3 (stdev 9.2), average BMI of 36.8 (stdev 3.2), average waist size of 46.9″ (stdev 4.1) and average body fat percentage of 38.1 (stdev 5.2). Average baseline testosterone levels in the subjects was 221.9 ng/dl (stdev 52.7), average estradiol level in the subjects was 48.1 μg/ml (stdev 14.8) and the average T:E ratio was 4.95 (stdev 1.7; normal range of T:E is 20-25). […] The subjects were provided a low calorie commercial diet for 6 months, gym membership for 15 month and access to a personal trainer for 6 months. Subjects were randomized to receive treatment with 12.5 mg enclomiphene/day, 25 mg enclomiphene/day or placebo via oral capsule over a three month period.
The test system is the same in assay [2]. As to the kind of experiment: Phase 2 clinical trial: lean mass by dual energy X-ray Absorptiometry (DXA). It is filed as in vivo, human. The following applies: placebo arm lost lean mass, FIG. 2A. The text has this:
(§1) FIGS. 2A and 2B illustrate lean mass (as a percentage of total mass in kilograms, measured by dual energy X-ray Absorptiometry (DXA)) and total testosterone levels at baseline and at the 3 month and 6 month time points in the subjects described at FIGS. 1A and 1B.
(§2) A randomized double blind placebo-controlled Phase 2 clinical study (duration=6 months) was initiated to study the effects of trans-clomiphene on testosterone, metabolic function, weight, body composition, measures of strength and quality of life assessments (made throughout the study) in obese men with acquired hypogonadotropic hypogonadism.
(§3) 50 adult male subjects are enrolled in the study with an average age of 43.3 (stdev 9.2), average BMI of 36.8 (stdev 3.2), average waist size of 46.9″ (stdev 4.1) and average body fat percentage of 38.1 (stdev 5.2). Average baseline testosterone levels in the subjects was 221.9 ng/dl (stdev 52.7), average estradiol level in the subjects was […] (stdev 14.8) and the average T:E ratio was 4.95 (stdev 1.7; normal range of T:E is 20-25). The top four reported baseline symptoms (by % of enrollees) were (i) fatigue/lack of energy (96%) (ii) depression, irritability, lack of focus (74%) (iii) poor libido (60%) and (iv) muscle weakness (48%). The subjects were provided a low calorie commercial diet for 6 months, gym membership for […] and access to a personal trainer for 6 months. […]

Assay [3] has the same test system. As to the kind of experiment: Phase 2 clinical trial: free and total (LCMS) testosterone. Particulars: enclomiphene arms; FIG. 2B. It is filed as in vivo, human.
Source text: as §1, §2, §3

The test system is the same in assay [4]. As to the kind of experiment: Phase 2 clinical trial: DISF-SR, IWQOL and SF-36 total scores. Type of assay: in vivo, human. Particulars: enclomiphene arms; 3 and 6 months; n=15 per group; FIG. 3.
Source text: FIG. 3 illustrates percent improvement from baseline total score at the 3 month and 6 month time points in subjects described at FIGS. 1A and 1B (n=15 per group) in the DISF-SR (Derogatis Interview for Sexual Functioning), IWQOL (Impact of Weight on Quality of Life questionnaire) and SF-36 (Medical Outcomes Study Short Form).
as §2
50 adult male subjects are enrolled in the study with an average age of 43.3 (stdev 9.2), average BMI of 36.8 (stdev 3.2), average waist size of 46.9″ (stdev 4.1) and average body fat percentage of 38.1 (stdev 5.2). Average baseline testosterone levels in the subjects was 221.9 ng/dl (stdev 52.7), average estradiol level in the subjects was […] (stdev 14.8) and the average T:E ratio was 4.95 (stdev 1.7; normal range of T:E is 20-25). The top four reported baseline symptoms (by % of enrollees) were (i) fatigue/lack of energy (96%) (ii) depression, irritability, lack of focus (74%) (iii) poor libido (60%) and (iv) muscle weakness (48%). The subjects were provided a low calorie commercial diet for 6 months, gym membership for […] and access to a personal trainer for 6 months. Subjects were randomized to receive treatment with 12.5 mg enclomiphene/day, 25 mg enclomiphene/day or placebo via oral capsule over a […] period.

Assay [5] has as its system subjects in need of treatment for obesity. As to the kind of experiment: Treating obesity with an antiestrogen (Example 2). Type of assay: in vivo. The following applies: 5 mg to 100 mg daily or every other day for at least three months. As for the experimental part: Subjects in need of treatment for obesity are administered an amount of an antiestrogen (e.g. trans-clomiphene or a salt or analogue thereof) in an amount effective to increase LH and FSH to therapeutic levels over a treatment period of sufficient duration to achieve the desired result, preferably for a period of at least 3 months during which an effective dose is administered daily or every other day. FSH and LH levels may be assessed prior to initiating treatment and then monitored through the course of treatment to ensure that therapeutic levels of the pituitary hormones are reached. By way of nonlimiting example, a subject with obesity is administered 5 mg to 100 mg trans-clomiphene daily or every other day for a treatment period of at least three months, preferably at least six months.

For the compound `CCN(CC)CCOc1ccc(/C(=C(/Cl)c2ccccc2)c2ccccc2)cc1` [enclomiphene, trans-clomiphene], the “morning testosterone at six months” value in assay [1] (12.5 mg enclomiphene/day oral capsule with weight loss regimen, baseline ~235 ng/dl) is roughly 505 ng/dL. Also, the “morning testosterone at six months” value in assay [1] (25 mg enclomiphene/day oral capsule with weight loss regimen, baseline ~285 ng/dl) is roughly 605 ng/dL. In addition, the “lean mass (percentage of total mass, DXA) at six months” value in assay [2] (12.5 mg enclomiphene arm) is on record as “gained lean mass”. In addition, the “lean mass (percentage of total mass, DXA) at six months” value in assay [2] (25 mg enclomiphene arm) is listed as “gained lean mass”. In addition, in assay [3], the “free testosterone, baseline to six month time point” value was “increases” and the “total (LCMS) testosterone, baseline to six month time point” value is on record as “increases”. Further, in assay [4], the “percent improvement relative to baseline in DISF-SR total score” value is given as “statistically significant from baseline”, the “percent improvement relative to baseline in IWQOL total score” value is listed as “statistically significant from baseline” and the “percent improvement relative to baseline in SF-36 total score” value is on record as “statistically significant from baseline”. In addition, the “symptoms of obesity during treatment” value in assay [5] is given as “reduction in one or more symptoms of obesity is observed”.
